Molecular target: T1, Kv7.2/7.3 (Homo sapiens, UniProt O43525+O43526)
T1 construct: Kv7.2 tetracycline-induced, Kv7.3 constitutive
Assay: Kv7.2/7.3 Activation Assay (Thallium Flux Assay)
Format: cell-based
Settings: hKV7.2/7.3 cell line; test compound at single concentration of 10 μM; fluorescence at 90 sec normalized to positive control (retigabine, 30 μM)
Source text: The Thallium Flux Assay is used as a surrogate indicator of potassium channel activity.
The experimental protocol was adapted from the FluxOR™ II Green Potassium Ion Channel Assay User Guide (Pub. No. MAN0016084, Invitrogen). Conditions were optimized for the Kv7.2/7.3 cell line.
Cell Line: The hKV7.2/7.3 cell line was obtained from Chantest (cat. #CT6147).
Cell Culture: Kv7.2/7.3 cells were maintained in a media containing DMEM/F12; 50/50 (Fisher 11-330), 10% Fetal Bovine Serum (FBS) (Fisher 26-140), 100 units/mL Penicillin-Streptomycin (Fisher 15-140), 0.005 mg/ml Blasticidin (InvivoGen ant-bl-1), 0.5 mg/mL Geneticin (InvivoGen ant-gn-5), and 0.1 mg/mL Zeocin (Fisher R25001). One day prior to experimentation, cells were plated in 96 well clear bottom plates (Corning cat. #353219) in a media without Blasticidin, Geneticin, or Zeocin. In this cell line Kv7.3 channel expression is controlled by a constitutive promoter. Kv7.2 channel expression was induced by adding tetracycline (Sigma T7660) at a final concentration of 10 ng/mL overnight in a cell culture incubator at 37° C. and 5% CO2. On the day of assay, the cell culture medium in the 96-well plates was replaced by assay buffer containing the thallium-sensitive fluorescent sensor, FluxOR II Green prepared according to manufacturer's instructions. The 96-well plates were then incubated for 1 h at 37° C. Following the incubation, the FluxOR II Green-containing solution was replaced with extracellular solution.
Test Compound Plates: The test compound is diluted in a mixture of 0.1% DMSO/extracellular solution at a single concentration of 10 μM. Dilutions were made on a Biomek NXP (BECKMAN COULTER). Extracellular solution contained (in mM: 145 NaCl, 4 KCl, 2 CaCl2), 1 MgCl2, 10 HEPES, and 10 Glucose, pH 7.4).
Measurement and data analysis: Thallium-flux-mediated changes in intracellular fluorescence were made using a plate reader (Enspire, Perkin Elmer) set with an excitation wavelength of 475 nm and an emission wavelength of 530 nm. After a 15 sec baseline measurement, the stimulus buffer containing thallium and potassium was added to the 96-well plate containing FluxOR II Green-loaded cells and test compounds. Fluorescence values at 90 sec were normalized to the positive control (retigabine, 30 μM) and test compound activities were assigned categories according to the formula: “No Activity <0.15, “+” Moderate Activity 0.15-0.7, and “++” High Activity >0.7.

Kv7.2/7.3 Activity | SMILES
++ (“++” High Activity ≥ 0.7) | Cn1nc(NC(=O)CC2(C(F)(F)F)CC2)c(C2CCC2)c1-c1ccc(OC(F)(F)F)cc1 [Compound 31, N-(4-cyclobutyl-1-methyl-5-(4-(trifluoromethoxy)phenyl)-1H-pyrazol-3-yl)-2-(1-(trifluoromethyl)cyclopropyl)acetamide]
++ (“++” High Activity ≥ 0.7) | Cn1nc(NC(=O)C[C@@H]2CC(F)(F)C2(F)F)c(C2CCC2)c1C(F)(F)c1ccccc1 [Compound 32, (R)-N-(4-cyclobutyl-5-(difluoro(phenyl)methyl)-1-methyl-1H-pyrazol-3-yl)-2-(2,2,3,3-tetrafluorocyclobutyl)acetamide]
++ (“++” High Activity ≥ 0.7) | Cn1nc(NC(=O)C[C@H]2CC(F)(F)C2(F)F)c(C2CCC2)c1-c1ccc(OC(F)(F)F)cc1 [Compound 33, (S)-N-(4-cyclobutyl-1-methyl-5-(4-(trifluoromethoxy)phenyl)-1H-pyrazol-3-yl)-2-(2,2,3,3-tetrafluorocyclobutyl)acetamide]
+ (“+” Moderate Activity 0.15-0.7) | Cn1nc(NC(=O)C[C@H]2CC(F)(F)C2(F)F)c(C2CCC2)c1-c1ccc(C(C)(C)O)cc1 [Compound 34, (S)-N-(4-cyclobutyl-5-(4-(2-hydroxypropan-2-yl)phenyl)-1-methyl-1H-pyrazol-3-yl)-2-(2,2,3,3-tetrafluorocyclobutyl)acetamide]
+ (“+” Moderate Activity 0.15-0.7) | Cn1nc(NC(=O)C[C@H]2CC(F)(F)C2(F)F)c(C2CCC2)c1-c1ccc(C(F)(F)F)cn1 [Compound 35, (S)-N-(4-cyclobutyl-1-methyl-5-(5-(trifluoromethyl)pyridin-2-yl)-1H-pyrazol-3-yl)-2-(2,2,3,3-tetrafluorocyclobutyl)acetamide]
− (“−” No Activity < 0.15) | Cn1nc(NC(=O)CC2(C(F)(F)F)CC2)c(C2CCC2)c1-c1ccc(C(F)(F)F)cn1 [Compound 36, N-(4-cyclobutyl-1-methyl-5-(5-(trifluoromethyl)pyridin-2-yl)-1H-pyrazol-3-yl)-2-(1-(trifluoromethyl)cyclopropyl)acetamide]
++ (“++” High Activity ≥ 0.7) | Cn1nc(NC(=O)C[C@@H]2CC(F)(F)C2(F)F)c(CC(F)(F)F)c1-c1ccccc1 [Compound 37, (R)-N-(1-methyl-5-phenyl-4-(2,2,2-trifluoroethyl)-1H-pyrazol-3-yl)-2-(2,2,3,3-tetrafluorocyclobutyl)acetamide]
++ (“++” High Activity ≥ 0.7) | Cn1nc(NC(=O)C[C@H]2CC(F)(F)C2(F)F)c(CC(F)(F)F)c1-c1ccccc1 [Compound 38, (S)-N-(1-methyl-5-phenyl-4-(2,2,2-trifluoroethyl)-1H-pyrazol-3-yl)-2-(2,2,3,3-tetrafluorocyclobutyl)acetamide]
++ (“++” High Activity ≥ 0.7) | Cn1nc(NC(=O)C[C@H]2CC(F)(F)C2(F)F)c(C2CCC2)c1C(F)(F)c1ccccc1 [Compound 39, (S)-N-(4-cyclobutyl-5-(difluoro(phenyl)methyl)-1-methyl-1H-pyrazol-3-yl)-2-(2,2,3,3-tetrafluorocyclobutyl)acetamide]
++ (“++” High Activity ≥ 0.7) | Cn1nc(NC(=O)C[C@H]2CC(F)(F)C2(F)F)c(C2CC(F)(F)C2)c1-c1ccc(OC(F)(F)F)cc1 [Compound 40, (S)-N-(4-(3,3-difluorocyclobutyl)-1-methyl-5-(4-(trifluoromethoxy)phenyl)-1H-pyrazol-3-yl)-2-(2,2,3,3-tetrafluorocyclobutyl)acetamide]
+ (“+” Moderate Activity 0.15-0.7) | Cn1nc(NC(=O)CC2(C(F)(F)F)CC2)c(C2CC(F)(F)C2)c1-c1ccc(OC(F)(F)F)cc1 [Compound 42, N-(4-(3,3-difluorocyclobutyl)-1-methyl-5-(4-(trifluoromethoxy)phenyl)-1H-pyrazol-3-yl)-2-(1-(trifluoromethyl)cyclopropyl)acetamide]
+ (“+” Moderate Activity 0.15-0.7) | Cn1nc(NC(=O)CC(C)(C)C2CC2)c(C2CC(F)(F)C2)c1-c1ccc(OC(F)(F)F)cc1 [Compound 43, 3-cyclopropyl-N-(4-(3,3-difluorocyclobutyl)-1-methyl-5-(4-(trifluoromethoxy)phenyl)-1H-pyrazol-3-yl)-3-methylbutanamide]
++ (“++” High Activity ≥ 0.7) | Cn1nc(NC(=O)C[C@@H]2CC(F)(F)C2(F)F)c(C2CCC2)c1C(=O)c1ccccc1 [Compound 44, (R)-N-(5-benzoyl-4-cyclobutyl-1-methyl-1H-pyrazol-3-yl)-2-(2,2,3,3-tetrafluorocyclobutyl)acetamide]
++ (“++” High Activity ≥ 0.7) | N#CCn1nc(NC(=O)C[C@@H]2CC(F)(F)C2(F)F)c(C2CCC2)c1-c1ccc(F)cc1 [Compound 45, (R)-N-(1-(cyanomethyl)-4-cyclobutyl-5-(4-fluorophenyl)-1H-pyrazol-3-yl)-2-(2,2,3,3-tetrafluorocyclobutyl)acetamide]
+ (“+” Moderate Activity 0.15-0.7) | N#CCn1nc(NC(=O)C[C@H]2CC(F)(F)C2(F)F)c(C2CCC2)c1-c1ccc(F)cc1 [Compound 46, (S)-N-(1-(cyanomethyl)-4-cyclobutyl-5-(4-fluorophenyl)-1H-pyrazol-3-yl)-2-(2,2,3,3-tetrafluorocyclobutyl)acetamide]
+ (“+” Moderate Activity 0.15-0.7) | Cn1nc(NC(=O)C[C@@H]2CC(F)(F)C2(F)F)c(C2CCC2)c1-c1cccc(C(C)(C)O)c1 [Compound 47, (R)-N-(4-cyclobutyl-5-(3-(2-hydroxypropan-2-yl)phenyl)-1-methyl-1H-pyrazol-3-yl)-2-(2,2,3,3-tetrafluorocyclobutyl)acetamide]
+ (“+” Moderate Activity 0.15-0.7) | Cn1nc(NC(=O)C[C@H]2CC(F)(F)C2(F)F)c(C2CCC2)c1-c1cccc(C(C)(C)O)c1 [Compound 48, (S)-N-(4-cyclobutyl-5-(3-(2-hydroxypropan-2-yl)phenyl)-1-methyl-1H-pyrazol-3-yl)-2-(2,2,3,3-tetrafluorocyclobutyl)acetamide]
+ (“+” Moderate Activity 0.15-0.7) | Cn1nc(NC(=O)CC(C)(C)C(F)(F)F)c(C2CCC2)c1-c1cnc(C(F)(F)F)s1 [Compound 49, N-(4-cyclobutyl-1-methyl-5-(2-(trifluoromethyl)thiazol-5-yl)-1H-pyrazol-3-yl)-4,4,4-trifluoro-3,3-dimethylbutanamide]
− (“−” No Activity < 0.15) | Cn1nc(NC(=O)CC2(C(F)(F)F)CC2)c(C2CCC2)c1-c1cnc(C(F)(F)F)s1 [Compound 50, N-(4-cyclobutyl-1-methyl-5-(2-(trifluoromethyl)thiazol-5-yl)-1H-pyrazol-3-yl)-2-(1-(trifluoromethyl)cyclopropyl)acetamide]
+ (“+” Moderate Activity 0.15-0.7) | Cn1nc(NC(=O)[C@H]2C(C)(C)C2(F)F)c(C2CCC2)c1-c1ccc(OC(F)(F)F)cc1 [Compound 52, (R)-N-(4-cyclobutyl-1-methyl-5-(4-(trifluoromethoxy)phenyl)-1H-pyrazol-3-yl)-2,2-difluoro-3,3-dimethylcyclopropane-1-carboxamide]
− (“−” No Activity < 0.15) | Cn1nc(NC(=O)C[C@@H]2CC(F)(F)C2(F)F)c(C2CCC2)c1-c1ccc(S(C)(=O)=O)cc1 [Compound 53, (R)-N-(4-cyclobutyl-1-methyl-5-(4-(methylsulfonyl)phenyl)-1H-pyrazol-3-yl)-2-(2,2,3,3-tetrafluorocyclobutyl)acetamide]
− (“−” No Activity < 0.15) | Cn1nc(NC(=O)C[C@H]2CC(F)(F)C2(F)F)c(C2CCC2)c1-c1ccc(S(C)(=O)=O)cc1 [Compound 54, (S)-N-(4-cyclobutyl-1-methyl-5-(4-(methylsulfonyl)phenyl)-1H-pyrazol-3-yl)-2-(2,2,3,3-tetrafluorocyclobutyl)acetamide]
+ (“+” Moderate Activity 0.15-0.7) | Cn1nc(NC(=O)CC(C)(C)O)c(C2CCC2)c1-c1ccc(OC(F)(F)F)cc1 [Compound 55, N-(4-cyclobutyl-1-methyl-5-(4-(trifluoromethoxy)phenyl)-1H-pyrazol-3-yl)-3-hydroxy-3-methylbutanamide]

SMILES | Kv7.2/7.3 Activity
Cn1nc(NC(=O)C2C(C)(C)C2(C)C)c(C2CCC2)c1-c1ccc(OC(F)(F)F)cc1 [Compound 51, N-(4-cyclobutyl-1-methyl-5-(4-(trifluoromethoxy)phenyl)-1H-pyrazol-3-yl)-2,2,3,3-tetramethylcyclopropane-1-carboxamide] | + (“+” Moderate Activity 0.15-0.7)
